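These data come from cells grown in 96-well plates and exposed to compound for 48 hours at five concentrations. Abbreviation: GI50, concentration required for 50% inhibition of growth.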 Activity calls are given as the source filed them. Cut-off read from the data, not from the text of the source: active = GI50 up to about 1.1 µM and inactive = higher.
Key:
Test in all cases: NCI tumour cell line growth inhibition, 48 h
786-0 = tested on: 786-0
A498 = tested on: A498
A549 = tested on: A549
ACHN = tested on: ACHN
CAKI-1 = tested on: CAKI-1
CCRF-CEM = tested on: CCRF-CEM
COLO 205 = tested on: COLO 205
DLD-1 = tested on: DLD-1
DMS-114 = tested on: DMS-114
DMS-273 = tested on: DMS-273
EKVX = tested on: EKVX
HCC 2998 = tested on: HCC 2998
HCT-116 = tested on: HCT-116
HCT-15 = tested on: HCT-15
HL-60 = tested on: HL-60
HOP-18 = tested on: HOP-18
HOP-62 = tested on: HOP-62
HT-29 = tested on: HT-29
IGROV-1 = tested on: IGROV-1
K562 = tested on: K562
KM-20L2 = tested on: KM-20L2
KM12 = tested on: KM12
LOX IMVI = tested on: LOX IMVI
LXFL 529 = tested on: LXFL 529
M14 = tested on: M14
M19-MEL = tested on: M19-MEL
MOLT-4 = tested on: MOLT-4
Malme-3M = tested on: Malme-3M
NCI-H226 = tested on: NCI-H226
NCI-H460 = tested on: NCI-H460
NCI-H522 = tested on: NCI-H522
OVCAR-3 = tested on: OVCAR-3
OVCAR-4 = tested on: OVCAR-4
OVCAR-5 = tested on: OVCAR-5
OVCAR-8 = tested on: OVCAR-8
RPMI-8226 = tested on: RPMI-8226
RXF 393 = tested on: RXF 393
RXF 631 = tested on: RXF 631
SF-268 = tested on: SF-268
SF-295 = tested on: SF-295
SF-539 = tested on: SF-539
SK-MEL-28 = tested on: SK-MEL-28
SK-MEL-2 = tested on: SK-MEL-2
SK-MEL-5 = tested on: SK-MEL-5
SK-OV-3 = tested on: SK-OV-3
SN12C = tested on: SN12C
SNB-19 = tested on: SNB-19
SNB-75 = tested on: SNB-75
SNB-78 = tested on: SNB-78
SR = tested on: SR
TK-10 = tested on: TK-10
U-251 = tested on: U-251
UACC-257 = tested on: UACC-257
UACC-62 = tested on: UACC-62
UO-31 = tested on: UO-31
XF498 = tested on: XF498
HOP-92 = tested on: HOP-92
NCI-H23 = tested on: NCI-H23

## CCOC(=O)CC(C)C1(C(=O)OCC)CCCCC1=O (stereo unspecified)
786-0
  GI50: 55 µM (inactive)
A498
  GI50: > 100 µM (inactive)
A549
  GI50: > 100 µM (inactive)
ACHN
  GI50: > 100 µM (inactive)
CAKI-1
  GI50: > 100 µM (inactive)
CCRF-CEM
  GI50: > 100 µM (inactive)
COLO 205
  GI50: 86.7 µM (inactive)
DLD-1
  GI50: 35 µM (inactive)
DMS-114
  GI50: 20.3 µM (inactive)
DMS-273
  GI50: 15 µM (inactive)
EKVX
  GI50: > 100 µM (inactive)
HCC 2998
  GI50: > 100 µM (inactive)
HCT-116
  GI50: 46 µM (inactive)
HCT-15
  GI50: 22.9 µM
HL-60
  GI50: > 100 µM (inactive)
HOP-18
  GI50: > 100 µM (inactive)
HOP-62
  GI50: > 100 µM (inactive)
HT-29
  GI50: > 100 µM (inactive)
IGROV-1
  GI50: > 100 µM (inactive)
K562
  GI50: > 100 µM (inactive)
KM-20L2
  GI50: 98.9 µM (inactive)
KM12
  GI50: > 100 µM (inactive)
LOX IMVI
  GI50: 67.3 µM (inactive)
LXFL 529
  GI50: > 100 µM (inactive)
M14
  GI50: > 100 µM (inactive)
M19-MEL
  GI50: > 100 µM (inactive)
MOLT-4
  GI50: > 100 µM (inactive)
Malme-3M
  GI50: > 100 µM (inactive)
NCI-H226
  GI50: > 100 µM (inactive)
NCI-H460
  GI50: > 100 µM (inactive)
NCI-H522
  GI50: > 100 µM (inactive)
OVCAR-3
  GI50: > 100 µM (inactive)
OVCAR-4
  GI50: > 100 µM (inactive)
OVCAR-5
  GI50: > 100 µM (inactive)
OVCAR-8
  GI50: > 100 µM (inactive)
RPMI-8226
  GI50: 25.5 µM (inactive)
RXF 393
  GI50: > 100 µM (inactive)
RXF 631
  GI50: > 100 µM (inactive)
SF-268
  GI50: > 100 µM (inactive)
SF-295
  GI50: > 100 µM (inactive)
SF-539
  GI50: > 100 µM (inactive)
SK-MEL-28
  GI50: > 100 µM (inactive)
SK-MEL-2
  GI50: > 100 µM (inactive)
SK-MEL-5
  GI50: > 100 µM (inactive)
SK-OV-3
  GI50: > 100 µM (inactive)
SN12C
  GI50: > 100 µM (inactive)
SNB-19
  GI50: > 100 µM (inactive)
SNB-75
  GI50: > 100 µM (inactive)
SNB-78
  GI50: > 100 µM (inactive)
SR
  GI50: 25.6 µM (inactive)
TK-10
  GI50: > 100 µM (inactive)
U-251
  GI50: > 100 µM (inactive)
UACC-257
  GI50: > 100 µM (inactive)
UACC-62
  GI50: > 100 µM (inactive)
UO-31
  GI50: > 100 µM (inactive)
XF498
  GI50: > 100 µM (inactive)

## O=[N+]([O-])c1ccc(/C=N/C23CC4CC(CC(C4)C2)C3)cc1
786-0
  GI50: > 100 µM (inactive)
A498
  GI50: > 100 µM (inactive)
ACHN
  GI50: > 100 µM (inactive)
CAKI-1
  GI50: > 100 µM (inactive)
CCRF-CEM
  GI50: 80.4 µM (inactive)
COLO 205
  GI50: > 100 µM (inactive)
DLD-1
  GI50: > 100 µM (inactive)
DMS-114
  GI50: 91.2 µM (inactive)
DMS-273
  GI50: > 100 µM (inactive)
EKVX
  GI50: > 100 µM (inactive)
HCC 2998
  GI50: > 100 µM (inactive)
HCT-116
  GI50: > 100 µM (inactive)
HCT-15
  GI50: > 100 µM
HL-60
  GI50: 71.3 µM (inactive)
HOP-18
  GI50: > 100 µM (inactive)
HOP-62
  GI50: > 100 µM (inactive)
HOP-92
  GI50: > 100 µM (inactive)
HT-29
  GI50: > 100 µM (inactive)
IGROV-1
  GI50: > 100 µM (inactive)
K562
  GI50: 54.7 µM (inactive)
KM-20L2
  GI50: > 100 µM (inactive)
KM12
  GI50: > 100 µM (inactive)
LOX IMVI
  GI50: 85.7 µM (inactive)
LXFL 529
  GI50: > 100 µM (inactive)
M14
  GI50: > 100 µM (inactive)
M19-MEL
  GI50: > 100 µM (inactive)
MOLT-4
  GI50: > 100 µM (inactive)
Malme-3M
  GI50: > 100 µM (inactive)
NCI-H226
  GI50: > 100 µM (inactive)
NCI-H23
  GI50: > 100 µM (inactive)
NCI-H460
  GI50: > 100 µM (inactive)
NCI-H522
  GI50: > 100 µM (inactive)
OVCAR-3
  GI50: > 100 µM (inactive)
OVCAR-4
  GI50: > 100 µM (inactive)
OVCAR-5
  GI50: > 100 µM (inactive)
OVCAR-8
  GI50: > 100 µM (inactive)
RPMI-8226
  GI50: > 100 µM (inactive)
RXF 393
  GI50: > 100 µM (inactive)
RXF 631
  GI50: > 100 µM (inactive)
SF-268
  GI50: > 100 µM (inactive)
SF-295
  GI50: > 100 µM (inactive)
SF-539
  GI50: > 100 µM (inactive)
SK-MEL-28
  GI50: > 100 µM (inactive)
SK-MEL-2
  GI50: > 100 µM (inactive)
SK-OV-3
  GI50: > 100 µM (inactive)
SN12C
  GI50: > 100 µM (inactive)
SNB-19
  GI50: > 100 µM (inactive)
SNB-75
  GI50: > 100 µM (inactive)
SNB-78
  GI50: > 100 µM (inactive)
TK-10
  GI50: > 100 µM (inactive)
U-251
  GI50: > 100 µM (inactive)
UACC-257
  GI50: > 100 µM (inactive)
UACC-62
  GI50: > 100 µM (inactive)
UO-31
  GI50: > 100 µM (inactive)
XF498
  GI50: > 100 µM (inactive)

From ChEMBL document CHEMBL1201862, “PubChem BioAssay data set” (2004)
